Laboratory results published in ChEMBL document CHEMBL5380795, “Design, Synthesis, and Bioactivity Investigation of Cyclic Lipopeptide Antibiotics Containing Eight to Nine Amino Acids” (J Med Chem, 2023).
In brackets after ≈: the same amount, converted by molar mass.

Legend:
[1] = test system: Pseudomonas aeruginosa; test: Antibacterial activity against carbapenem resistant Pseudomonas aeruginosa clinical isolate 19-3 assessed as inhibition of bacterial growth incubated for 18 to 24 hrs by broth microdilution method; type: functional; settings: time 18-24 hrs
[2] = test system: Escherichia coli; test: Antibacterial activity against Escherichia coli clinical isolate 19-2 assessed as inhibition of bacterial growth incubated for 18 to 24 hrs by broth microdilution method; type: functional; settings: time 18-24 hrs
[3] = test system: Acinetobacter baumannii; test: Antibacterial activity against oxacillinase-27 producing Acinetobacter baumannii NCTC 13304 assessed as inhibition of bacterial growth incubated for 18 to 24 hrs by broth microdilution method; type: functional; settings: time 18-24 hrs
[4] = test system: Pseudomonas aeruginosa; test: Antibacterial activity against Pseudomonas aeruginosa ATCC 27853 assessed as inhibition of bacterial growth incubated for 18 to 24 hrs by broth microdilution method; type: functional; settings: time 18-24 hrs
[5] = test system: Staphylococcus aureus; test: Antibacterial activity against methicillin resistant Staphylococcus aureus ATCC 33591 assessed as inhibition of bacterial growth incubated for 18 to 24 hrs by broth microdilution method; type: functional; settings: time 18-24 hrs
[6] = test system: Klebsiella pneumoniae; test: Antibacterial activity against carbapenem resistant Klebsiella pneumoniae clinical isolate 19-17 assessed as inhibition of bacterial growth incubated for 18 to 24 hrs by broth microdilution method; type: functional; settings: time 18-24 hrs
[7] = test system: Staphylococcus epidermidis; test: Antibacterial activity against methicillin resistant Staphylococcus epidermidis clinical isolate 19-5 assessed as inhibition of bacterial growth incubated for 18 to 24 hrs by broth microdilution method; type: functional; settings: time 18-24 hrs
[8] = test system: Klebsiella pneumoniae; test: Antibacterial activity against carbapenem resistant Klebsiella pneumoniae clinical isolate 19-15 assessed as inhibition of bacterial growth incubated for 18 to 24 hrs by broth microdilution method; type: functional; settings: time 18-24 hrs
[9] = test system: Staphylococcus aureus; test: Antibacterial activity against Staphylococcus aureus ATCC 29213 assessed as inhibition of bacterial growth incubated for 18 to 24 hrs by broth microdilution method; type: functional; settings: time 18-24 hrs
[10] = test system: Escherichia coli; test: Antibacterial activity against Escherichia coli ATCC BAA-2523 assessed as inhibition of bacterial growth incubated for 18 to 24 hrs by broth microdilution method; type: functional; settings: time 18-24 hrs
[11] = test system: Escherichia coli; test: Antibacterial activity against KPC producing Escherichia coli ATCC BAA-2340 assessed as inhibition of bacterial growth incubated for 18 to 24 hrs by broth microdilution method; type: functional; settings: time 18-24 hrs
[12] = test system: Acinetobacter baumannii; test: Antibacterial activity against carbapenem resistant Acinetobacter baumannii clinical isolate 19-8 assessed as inhibition of bacterial growth incubated for 18 to 24 hrs by broth microdilution method; type: functional; settings: time 18-24 hrs
[13] = test system: Pseudomonas aeruginosa; test: Antibacterial activity against Pseudomonas aeruginosa clinical isolate 19-1 assessed as inhibition of bacterial growth incubated for 18 to 24 hrs by broth microdilution method; type: functional; settings: time 18-24 hrs
[14] = test system: Staphylococcus epidermidis; test: Antibacterial activity against methicillin resistant Staphylococcus epidermidis clinical isolate 19-6 assessed as inhibition of bacterial growth incubated for 18 to 24 hrs by broth microdilution method; type: functional; settings: time 18-24 hrs
[15] = test system: Pseudomonas aeruginosa; test: Antibacterial activity against carbapenem resistant Pseudomonas aeruginosa clinical isolate 17-1 assessed as inhibition of bacterial growth incubated for 18 to 24 hrs by broth microdilution method; type: functional; settings: time 18-24 hrs
[16] = test system: Escherichia coli; test: Antibacterial activity against Escherichia coli NCTC 13353 assessed as inhibition of bacterial growth incubated for 18 to 24 hrs by broth microdilution method; type: functional; settings: time 18-24 hrs
[17] = test system: Klebsiella pneumoniae; test: Antibacterial activity against KPC producing Klebsiella pneumoniae ATCC BAA-1705 assessed as inhibition of bacterial growth incubated for 18 to 24 hrs by broth microdilution method; type: functional; settings: time 18-24 hrs
[18] = Cytotoxicity against human HK-2 cells assessed as inhibition of cell growth incubated for 72 hrs by CCK-8 assay; type: toxicity, cell-based
[19] = Selectivity index, ratio of IC50 for cytotoxicity against human HK-2 cells to MIC for antibacterial activity against Escherichia coli ATCC BAA-2523; type: toxicity, cell-based

SMILES	MIC [1]	MIC [2]	MIC [3]	MIC [4]	MIC [5]	MIC [6]	MIC [7]	MIC [8]	MIC [9]	MIC [10]	MIC [11]	MIC [12]	MIC [13]	MIC [14]	MIC [15]	MIC [16]	MIC [17]	IC50 at 72 h [18]	selectivity ratio [19]
CCCCCCCCCC(=O)N[C@H](CCN)C(=O)N[C@H]1CCNC(=O)[C@H]([C@@H](C)O)NC(=O)[C@H](CCN)NC(=O)[C@H](CCN)NC(=O)[C@@H](CC(C)C)NC(=O)[C@@H](CC(C)C)NC(=O)[C@H](CCN)NC1=O	64 µg/mL (≈ 65.2 µM)	64 µg/mL (≈ 65.2 µM)	> 64 µg/mL	64 µg/mL (≈ 65.2 µM)	> 64 µg/mL	> 64 µg/mL	2 µg/mL (≈ 2.04 µM)	64 µg/mL (≈ 65.2 µM)	> 64 µg/mL	64 µg/mL (≈ 65.2 µM)	64 µg/mL (≈ 65.2 µM)	> 64 µg/mL	64 µg/mL (≈ 65.2 µM)	32 µg/mL (≈ 32.6 µM)	64 µg/mL (≈ 65.2 µM)	64 µg/mL (≈ 65.2 µM)	> 64 µg/mL	87.5 µg/mL (≈ 89.1 µM)	1.4
CCCCCCCCCC(=O)N[C@H](CCN)C(=O)N[C@H]1CCNC(=O)[C@H]([C@@H](C)O)NC(=O)[C@H](CCN)NC(=O)[C@H](CCN)NC(=O)[C@H](CC(C)C)NC(=O)[C@@H](Cc2ccc(C(C)(C)C)cc2)NC(=O)[C@H](CCN)NC1=O	2 µg/mL (≈ 1.86 µM)	2 µg/mL (≈ 1.86 µM)	16 µg/mL (≈ 14.9 µM)	2 µg/mL (≈ 1.86 µM)	4 µg/mL (≈ 3.73 µM)	2 µg/mL (≈ 1.86 µM)	0.5 µg/mL (≈ 0.466 µM)	4 µg/mL (≈ 3.73 µM)	4 µg/mL (≈ 3.73 µM)	1 µg/mL (≈ 0.932 µM)	2 µg/mL (≈ 1.86 µM)	16 µg/mL (≈ 14.9 µM)	4 µg/mL (≈ 3.73 µM)	2 µg/mL (≈ 1.86 µM)	4 µg/mL (≈ 3.73 µM)	4 µg/mL (≈ 3.73 µM)	2 µg/mL (≈ 1.86 µM)	15.9 µg/mL (≈ 14.8 µM)	15.9
CCCCCCCCCC(=O)N[C@H](CCN)C(=O)N[C@H]1CCNC(=O)[C@H]([C@@H](C)O)NC(=O)[C@H](CCN)NC(=O)[C@H](CCN)NC(=O)[C@H](CC(C)C)NC(=O)[C@@H](Cc2ccccc2Cl)NC(=O)[C@H](CCN)NC1=O	2 µg/mL (≈ 1.9 µM)	2 µg/mL (≈ 1.9 µM)	32 µg/mL (≈ 30.5 µM)	32 µg/mL (≈ 30.5 µM)	> 64 µg/mL	4 µg/mL (≈ 3.81 µM)	4 µg/mL (≈ 3.81 µM)	4 µg/mL (≈ 3.81 µM)	64 µg/mL (≈ 60.9 µM)	2 µg/mL (≈ 1.9 µM)	2 µg/mL (≈ 1.9 µM)	64 µg/mL (≈ 60.9 µM)	2 µg/mL (≈ 1.9 µM)	2 µg/mL (≈ 1.9 µM)	64 µg/mL (≈ 60.9 µM)	8 µg/mL (≈ 7.61 µM)	2 µg/mL (≈ 1.9 µM)	54.6 µg/mL (≈ 52 µM)	27.3
CCCCCCCCCC(=O)N[C@H](CCN)C(=O)N[C@H]1CCNC(=O)[C@H]([C@@H](C)O)NC(=O)[C@H](CCN)NC(=O)[C@H](CCN)NC(=O)[C@H](CC(C)C)NC(=O)[C@H](CC(C)C)NC(=O)[C@H](CCN)NC1=O	> 64 µg/mL	> 64 µg/mL	> 64 µg/mL	> 64 µg/mL	> 64 µg/mL	> 64 µg/mL	4 µg/mL (≈ 4.07 µM)	> 64 µg/mL	> 64 µg/mL	> 64 µg/mL	64 µg/mL (≈ 65.2 µM)	> 64 µg/mL	> 64 µg/mL	16 µg/mL (≈ 16.3 µM)	> 64 µg/mL	> 64 µg/mL	> 64 µg/mL	58.7 µg/mL (≈ 59.8 µM)	< 0.9
CCCCCCC[C@@H](O)CC(=O)N[C@H](CCN)C(=O)N[C@H]1CCNC(=O)[C@H]([C@@H](C)O)NC(=O)[C@H](CCN)NC(=O)[C@H](CCN)NC(=O)[C@H]([C@@H](C)O)NC(=O)[C@@H](CC(C)C)NC(=O)[C@H](CCN)NC1=O	0.5 µg/mL (≈ 0.507 µM)	16 µg/mL (≈ 16.2 µM)	> 64 µg/mL	0.25 µg/mL (≈ 0.253 µM)	> 64 µg/mL	64 µg/mL (≈ 64.9 µM)	> 64 µg/mL	16 µg/mL (≈ 16.2 µM)	> 64 µg/mL	2 µg/mL (≈ 2.03 µM)	4 µg/mL (≈ 4.06 µM)	> 64 µg/mL	0.5 µg/mL (≈ 0.507 µM)	> 64 µg/mL	0.5 µg/mL (≈ 0.507 µM)	16 µg/mL (≈ 16.2 µM)	4 µg/mL (≈ 4.06 µM)	411 µg/mL (≈ 417 µM)	205
CCCCCCCCCC(=O)N[C@H](CCN)C(=O)N[C@H]1CCNC(=O)[C@H]([C@@H](C)O)NC(=O)[C@H](CCN)NC(=O)[C@H](CCN)NC(=O)[C@H](CC(C)C)NC(=O)[C@@H](Cc2ccc(Cl)cc2)NC(=O)[C@H](CCN)NC1=O	0.5 µg/mL (≈ 0.476 µM)	1 µg/mL (≈ 0.952 µM)	8 µg/mL (≈ 7.61 µM)	0.5 µg/mL (≈ 0.476 µM)	16 µg/mL (≈ 15.2 µM)	2 µg/mL (≈ 1.9 µM)	0.5 µg/mL (≈ 0.476 µM)	2 µg/mL (≈ 1.9 µM)	8 µg/mL (≈ 7.61 µM)	1 µg/mL (≈ 0.952 µM)	1 µg/mL (≈ 0.952 µM)	32 µg/mL (≈ 30.5 µM)	0.5 µg/mL (≈ 0.476 µM)	4 µg/mL (≈ 3.81 µM)	1 µg/mL (≈ 0.952 µM)	2 µg/mL (≈ 1.9 µM)	0.5 µg/mL (≈ 0.476 µM)	48.1 µg/mL (≈ 45.8 µM)	48.1
